Assays:
[1] = biological target: Casein kinase I isoform gamma-2 (Homo sapiens) (UniProt P78368); conditions: Compound concentration 1000.0 nM
[2] = tested on: Tyrosine-protein kinase ABL1 (Homo sapiens), P00519 [T315I]; conditions: Compound concentration 1000.0 nM
[3] = biological target: D(2) dopamine receptor (Homo sapiens) (UniProt P14416); conditions: Compound concentration 10.0 uM
[4] = biological target: Serine/threonine-protein kinase DCLK3 (Homo sapiens) (UniProt Q9C098); conditions: Compound concentration 1000.0 nM
[5] = biological target: Serine/threonine-protein kinase/endoribonuclease IRE1 (Homo sapiens) (UniProt O75460); conditions: Compound concentration 1000.0 nM
[6] = biological target: Ribosomal protein S6 kinase alpha-1 (Homo sapiens) (UniProt Q15418); conditions: Compound concentration 1000.0 nM
[7] = biological target: Protein kinase C delta type (Homo sapiens) (UniProt Q05655); conditions: Compound concentration 1000.0 nM
[8] = biological target: Serine/threonine-protein kinase LATS1 (Homo sapiens) (UniProt O95835); conditions: Compound concentration 1000.0 nM
[9] = biological target: cGMP-dependent protein kinase 1 (Homo sapiens) (UniProt Q13976); conditions: Compound concentration 1000.0 nM
[10] = biological target: Mitogen-activated protein kinase 12 (Homo sapiens) (UniProt P53778); conditions: Compound concentration 1000.0 nM
[11] = tested on: Hepatocyte growth factor receptor (Homo sapiens), P08581 [Y1235D]; conditions: Compound concentration 1000.0 nM
[12] = biological target: Cyclin-dependent kinase 5 (Homo sapiens) (UniProt Q00535); conditions: Compound concentration 1000.0 nM
[13] = biological target: G protein-coupled receptor kinase 3 (Homo sapiens) (UniProt P35626); conditions: Compound concentration 1000.0 nM
[14] = biological target: Mitogen-activated protein kinase kinase kinase 15 (Homo sapiens) (UniProt Q6ZN16); conditions: Compound concentration 1000.0 nM
[15] = tested on: Epidermal growth factor receptor (Homo sapiens), P00533 [UNDEFINED MUTATION]; conditions: Compound concentration 1000.0 nM
[16] = biological target: Tyrosine-protein kinase Lyn (Homo sapiens) (UniProt P07948); conditions: Compound concentration 1000.0 nM
Tyrosine-protein kinase Lyn (Homo sapiens), sequence (P07948 2-512 limits assumed): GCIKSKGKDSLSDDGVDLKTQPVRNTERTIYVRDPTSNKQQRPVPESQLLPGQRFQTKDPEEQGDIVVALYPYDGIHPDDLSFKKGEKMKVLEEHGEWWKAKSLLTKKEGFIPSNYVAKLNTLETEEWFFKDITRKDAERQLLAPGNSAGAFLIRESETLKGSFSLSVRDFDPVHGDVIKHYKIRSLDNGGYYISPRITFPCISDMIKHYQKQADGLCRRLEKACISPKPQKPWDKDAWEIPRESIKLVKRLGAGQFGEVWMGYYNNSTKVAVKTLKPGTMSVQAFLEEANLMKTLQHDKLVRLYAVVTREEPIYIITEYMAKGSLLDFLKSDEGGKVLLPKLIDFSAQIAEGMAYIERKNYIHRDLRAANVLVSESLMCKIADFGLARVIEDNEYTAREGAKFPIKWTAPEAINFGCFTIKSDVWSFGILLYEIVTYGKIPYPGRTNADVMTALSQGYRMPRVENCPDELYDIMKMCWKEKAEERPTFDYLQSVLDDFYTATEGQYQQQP

[17] = tested on: Epidermal growth factor receptor (Homo sapiens), P00533 [UNDEFINED MUTATION]; conditions: Compound concentration 1000.0 nM; remark: listed apart in the source
[18] = biological target: Serine/threonine-protein kinase pim-3 (Homo sapiens) (UniProt Q86V86); conditions: Compound concentration 1000.0 nM
[19] = biological target: Calcium/calmodulin-dependent protein kinase type II subunit beta (Homo sapiens) (UniProt Q13554); conditions: Compound concentration 1000.0 nM
[20] = biological target: MAP/microtubule affinity-regulating kinase 3 (Homo sapiens) (UniProt P27448); conditions: Compound concentration 1000.0 nM
MAP/microtubule affinity-regulating kinase 3 (Homo sapiens), sequence (P27448 whole entry, looked up): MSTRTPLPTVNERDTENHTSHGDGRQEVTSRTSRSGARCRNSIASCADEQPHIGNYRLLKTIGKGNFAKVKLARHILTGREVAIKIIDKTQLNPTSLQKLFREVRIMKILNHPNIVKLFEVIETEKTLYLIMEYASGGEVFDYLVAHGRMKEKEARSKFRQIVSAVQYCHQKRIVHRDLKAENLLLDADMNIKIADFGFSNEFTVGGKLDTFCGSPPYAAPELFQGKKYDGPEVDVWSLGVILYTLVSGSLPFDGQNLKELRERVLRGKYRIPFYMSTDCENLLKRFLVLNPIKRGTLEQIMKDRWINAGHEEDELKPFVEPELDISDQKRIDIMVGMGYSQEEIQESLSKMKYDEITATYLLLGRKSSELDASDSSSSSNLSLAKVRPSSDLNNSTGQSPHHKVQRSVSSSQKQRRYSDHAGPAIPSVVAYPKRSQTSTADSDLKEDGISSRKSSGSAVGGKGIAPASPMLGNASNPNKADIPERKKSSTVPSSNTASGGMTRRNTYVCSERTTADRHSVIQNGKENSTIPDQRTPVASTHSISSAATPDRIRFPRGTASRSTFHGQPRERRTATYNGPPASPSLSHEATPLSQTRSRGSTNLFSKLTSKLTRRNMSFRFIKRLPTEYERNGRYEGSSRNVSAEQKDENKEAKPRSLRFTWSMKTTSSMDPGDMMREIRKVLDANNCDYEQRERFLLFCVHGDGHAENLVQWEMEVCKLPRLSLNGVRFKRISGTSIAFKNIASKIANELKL

[21] = biological target: Tyrosine-protein kinase ABL2 (Homo sapiens) (UniProt P42684); conditions: Compound concentration 1000.0 nM
[22] = biological target: Inhibitor of nuclear factor kappa-B kinase subunit beta (Homo sapiens) (UniProt O14920); conditions: Compound concentration 1000.0 nM
Inhibitor of nuclear factor kappa-B kinase subunit beta (Homo sapiens), sequence (O14920 whole entry): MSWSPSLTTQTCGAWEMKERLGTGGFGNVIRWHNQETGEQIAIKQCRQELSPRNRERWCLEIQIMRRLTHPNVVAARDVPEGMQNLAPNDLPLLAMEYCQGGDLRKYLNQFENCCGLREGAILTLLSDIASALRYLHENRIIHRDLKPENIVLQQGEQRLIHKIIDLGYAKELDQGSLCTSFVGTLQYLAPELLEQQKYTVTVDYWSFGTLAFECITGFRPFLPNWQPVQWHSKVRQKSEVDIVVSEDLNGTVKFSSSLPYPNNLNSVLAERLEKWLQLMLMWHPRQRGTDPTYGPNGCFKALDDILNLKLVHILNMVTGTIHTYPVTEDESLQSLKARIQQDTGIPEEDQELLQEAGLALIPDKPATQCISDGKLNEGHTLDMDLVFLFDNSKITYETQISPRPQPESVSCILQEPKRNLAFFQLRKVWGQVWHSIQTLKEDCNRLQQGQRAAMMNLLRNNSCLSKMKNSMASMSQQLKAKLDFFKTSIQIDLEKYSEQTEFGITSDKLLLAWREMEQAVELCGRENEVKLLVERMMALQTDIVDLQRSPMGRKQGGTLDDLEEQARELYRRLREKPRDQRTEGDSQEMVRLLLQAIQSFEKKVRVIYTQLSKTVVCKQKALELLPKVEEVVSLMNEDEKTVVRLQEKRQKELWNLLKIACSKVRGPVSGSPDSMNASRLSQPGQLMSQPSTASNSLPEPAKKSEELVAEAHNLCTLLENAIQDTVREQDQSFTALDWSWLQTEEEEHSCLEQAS

[23] = biological target: Ephrin type-A receptor 8 (Homo sapiens) (UniProt P29322); conditions: Compound concentration 1000.0 nM
[24] = biological target: Serine/threonine-protein kinase PRP4 homolog (Homo sapiens) (UniProt Q13523); conditions: Compound concentration 1000.0 nM
[25] = biological target: Serine/threonine-protein kinase SIK1 (Homo sapiens) (UniProt P57059); conditions: Compound concentration 1000.0 nM
Serine/threonine-protein kinase SIK1 (Homo sapiens), sequence (P57059 whole entry): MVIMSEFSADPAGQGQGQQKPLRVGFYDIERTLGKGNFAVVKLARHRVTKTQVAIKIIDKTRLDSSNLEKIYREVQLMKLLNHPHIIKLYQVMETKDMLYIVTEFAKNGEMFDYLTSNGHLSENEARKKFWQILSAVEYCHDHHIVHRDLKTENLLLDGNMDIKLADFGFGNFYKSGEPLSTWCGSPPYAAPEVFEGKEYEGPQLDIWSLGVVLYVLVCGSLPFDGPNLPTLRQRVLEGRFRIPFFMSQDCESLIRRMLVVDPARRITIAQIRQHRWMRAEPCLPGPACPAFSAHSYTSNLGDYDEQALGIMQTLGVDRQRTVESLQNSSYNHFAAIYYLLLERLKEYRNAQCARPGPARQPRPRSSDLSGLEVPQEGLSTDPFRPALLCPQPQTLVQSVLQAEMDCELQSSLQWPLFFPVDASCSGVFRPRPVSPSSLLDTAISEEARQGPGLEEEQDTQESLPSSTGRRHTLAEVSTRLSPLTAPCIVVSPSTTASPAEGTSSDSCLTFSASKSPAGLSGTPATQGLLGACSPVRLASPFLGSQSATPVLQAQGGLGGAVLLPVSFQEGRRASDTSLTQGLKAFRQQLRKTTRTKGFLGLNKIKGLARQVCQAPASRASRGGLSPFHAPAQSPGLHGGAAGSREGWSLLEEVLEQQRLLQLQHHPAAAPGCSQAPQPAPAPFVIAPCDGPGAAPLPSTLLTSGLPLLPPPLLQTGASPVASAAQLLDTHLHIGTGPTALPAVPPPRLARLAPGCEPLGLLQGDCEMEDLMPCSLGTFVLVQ

[26] = biological target: Inhibitor of nuclear factor kappa-B kinase subunit epsilon (Homo sapiens) (UniProt Q14164); conditions: Compound concentration 1000.0 nM
[27] = biological target: Serine/threonine-protein kinase 3 (Homo sapiens) (UniProt Q13188); conditions: Compound concentration 1000.0 nM
[28] = biological target: 5-hydroxytryptamine receptor 2C (Homo sapiens) (UniProt P28335); conditions: Compound concentration 10.0 uM
[29] = biological target: Maternal embryonic leucine zipper kinase (Homo sapiens) (UniProt Q14680); conditions: Compound concentration 1000.0 nM
[30] = tested on: Epidermal growth factor receptor (Homo sapiens), P00533 [L861Q]; conditions: Compound concentration 1000.0 nM
[31] = biological target: GABA-A receptor; anion channel (Rattus norvegicus) (UniProt O09028+P15431+P18506+P18508+P19969+P20236+P23574+P23576+P28471+P28473+P30191+P62813+P63079+P63138+Q91ZM7+Q9ES14); conditions: Compound concentration 10.0 uM
[32] = biological target: Serine/threonine-protein kinase ULK1 (Homo sapiens) (UniProt O75385); conditions: Compound concentration 1000.0 nM
[33] = biological target: Tyrosine-protein kinase receptor UFO (Homo sapiens) (UniProt P30530); conditions: Compound concentration 1000.0 nM
[34] = biological target: Ribosomal protein S6 kinase alpha-4 (Homo sapiens) (UniProt O75676); conditions: Compound concentration 1000.0 nM
[35] = biological target: Calcium/calmodulin-dependent protein kinase type II subunit gamma (Homo sapiens) (UniProt Q13555); conditions: Compound concentration 1000.0 nM
[36] = biological target: Alpha-1A adrenergic receptor (Homo sapiens) (UniProt P35348); conditions: Compound concentration 10.0 uM
[37] = biological target: Serine/threonine-protein kinase pim-2 (Homo sapiens) (UniProt Q9P1W9); conditions: Compound concentration 1000.0 nM
[38] = biological target: Non-receptor tyrosine-protein kinase TYK2 (Homo sapiens) (UniProt P29597); conditions: Compound concentration 1000.0 nM
[39] = biological target: Tyrosine-protein kinase Fes/Fps (Homo sapiens) (UniProt P07332); conditions: Compound concentration 1000.0 nM
[40] = biological target: Serine/threonine-protein kinase Nek11 (Homo sapiens) (UniProt Q8NG66); conditions: Compound concentration 1000.0 nM
[41] = biological target: Mitogen-activated protein kinase kinase kinase kinase 3 (Homo sapiens) (UniProt Q8IVH8); conditions: Compound concentration 1000.0 nM
Mitogen-activated protein kinase kinase kinase kinase 3 (Homo sapiens), sequence (Q8IVH8 whole entry): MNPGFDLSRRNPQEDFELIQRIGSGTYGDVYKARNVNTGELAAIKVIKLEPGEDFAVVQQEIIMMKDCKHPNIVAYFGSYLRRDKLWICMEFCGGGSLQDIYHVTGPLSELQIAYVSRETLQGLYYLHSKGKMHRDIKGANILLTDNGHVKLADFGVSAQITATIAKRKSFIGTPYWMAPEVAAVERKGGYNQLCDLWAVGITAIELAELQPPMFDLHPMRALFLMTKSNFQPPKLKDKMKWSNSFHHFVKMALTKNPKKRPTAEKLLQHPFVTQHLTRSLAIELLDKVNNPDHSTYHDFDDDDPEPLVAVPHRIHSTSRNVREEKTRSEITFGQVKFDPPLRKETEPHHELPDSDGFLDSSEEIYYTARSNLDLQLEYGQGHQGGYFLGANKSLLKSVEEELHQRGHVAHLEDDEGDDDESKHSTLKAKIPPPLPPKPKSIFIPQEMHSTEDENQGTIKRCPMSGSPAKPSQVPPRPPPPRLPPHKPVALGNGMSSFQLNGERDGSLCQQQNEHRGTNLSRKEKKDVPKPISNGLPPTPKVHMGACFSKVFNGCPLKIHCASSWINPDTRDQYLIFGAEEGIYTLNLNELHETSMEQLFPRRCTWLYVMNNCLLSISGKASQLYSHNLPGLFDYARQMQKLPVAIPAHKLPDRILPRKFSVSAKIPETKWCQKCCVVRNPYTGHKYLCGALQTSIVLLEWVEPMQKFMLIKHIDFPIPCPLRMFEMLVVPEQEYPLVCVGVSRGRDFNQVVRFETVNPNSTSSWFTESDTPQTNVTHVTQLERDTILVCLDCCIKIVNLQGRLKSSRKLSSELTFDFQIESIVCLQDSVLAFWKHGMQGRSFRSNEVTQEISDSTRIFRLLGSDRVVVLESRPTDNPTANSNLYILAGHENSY

[42] = biological target: Casein kinase II subunit alpha' (Homo sapiens) (UniProt P19784); conditions: Compound concentration 1000.0 nM
Casein kinase II subunit alpha' (Homo sapiens), sequence (P19784 whole entry, looked up): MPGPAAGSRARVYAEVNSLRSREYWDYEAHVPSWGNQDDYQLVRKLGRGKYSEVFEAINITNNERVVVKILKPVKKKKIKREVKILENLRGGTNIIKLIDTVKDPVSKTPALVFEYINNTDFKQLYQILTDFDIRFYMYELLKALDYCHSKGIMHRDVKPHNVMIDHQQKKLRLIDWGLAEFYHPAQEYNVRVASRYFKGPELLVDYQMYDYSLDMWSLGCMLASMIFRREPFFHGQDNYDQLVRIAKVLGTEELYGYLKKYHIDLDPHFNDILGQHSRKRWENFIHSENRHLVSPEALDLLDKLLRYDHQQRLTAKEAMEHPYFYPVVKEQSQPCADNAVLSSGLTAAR

[43] = tested on: Epidermal growth factor receptor (Homo sapiens), P00533 [L858R]; conditions: Compound concentration 1000.0 nM

D(2) dopamine receptor (Homo sapiens), sequence (P14416 whole entry): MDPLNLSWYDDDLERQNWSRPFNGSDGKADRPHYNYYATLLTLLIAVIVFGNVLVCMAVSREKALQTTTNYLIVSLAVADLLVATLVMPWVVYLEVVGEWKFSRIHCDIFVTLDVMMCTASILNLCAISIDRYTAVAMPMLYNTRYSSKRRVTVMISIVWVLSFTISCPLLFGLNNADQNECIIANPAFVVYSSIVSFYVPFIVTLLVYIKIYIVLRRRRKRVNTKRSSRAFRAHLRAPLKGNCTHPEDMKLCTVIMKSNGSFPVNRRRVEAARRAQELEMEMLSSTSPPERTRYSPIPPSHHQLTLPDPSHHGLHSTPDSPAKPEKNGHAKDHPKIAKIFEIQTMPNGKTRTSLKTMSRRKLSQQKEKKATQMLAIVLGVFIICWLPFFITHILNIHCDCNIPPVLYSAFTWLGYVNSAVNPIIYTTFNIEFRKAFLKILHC

Cc1c(NC(=O)c2cc(C(N)=O)nc3cc(F)ccc23)c(C(F)(F)F)nn1Cc1ccc(C#N)cc1 [BAY-876]
inactive: residual activity [1] 88% | residual activity [2] 100% | inhibition [3] 8.73% | residual activity [4] 92% | residual activity [5] 78% | residual activity [6] 100% | residual activity [7] 95% | residual activity [8] 94% | residual activity [9] 100% | residual activity [10] 86% | residual activity [11] 100% | residual activity [12] 100% | residual activity [13] 89% | residual activity [14] 100% | residual activity [15] 61% | residual activity [16] 100% | residual activity [17] 91% | residual activity [18] 100% | residual activity [19] 90% | residual activity [20] 100% | residual activity [21] 74% | residual activity [22] 92% | residual activity [23] 91% | residual activity [24] 93% | residual activity [25] 100% | residual activity [26] 75% | residual activity [27] 96% | inhibition [28] 6.9% | residual activity [29] 90% | residual activity [30] 67% | inhibition [31] 5.66% | residual activity [32] 81% | residual activity [33] 100% | residual activity [34] 100% | residual activity [35] 86% | inhibition [36] -5.75% | residual activity [37] 94% | residual activity [38] 83% | residual activity [39] 83% | residual activity [40] 100% | residual activity [41] 99% | residual activity [42] 100% | residual activity [43] 97%

Cc1c(NC(=O)c2cc(C(N)=O)nc3cc(F)ccc23)c(C(F)(F)F)nn1Cc1ccc(C(C)(C)C)cc1 [BAY-588]
inactive: residual activity [1] 100% | residual activity [2] 100% | inhibition [3] 18% | residual activity [4] 100% | residual activity [5] 89% | residual activity [6] 100% | residual activity [7] 100% | residual activity [8] 100% | residual activity [9] 99% | residual activity [10] 56% | residual activity [11] 84% | residual activity [12] 76% | residual activity [13] 100% | residual activity [14] 95% | residual activity [15] 96% | residual activity [16] 99% | residual activity [17] 100% | residual activity [18] 100% | residual activity [19] 98% | residual activity [20] 100% | residual activity [21] 87% | residual activity [22] 100% | residual activity [23] 100% | residual activity [24] 73% | residual activity [25] 87% | residual activity [26] 100% | residual activity [27] 90% | inhibition [28] -2.42% | residual activity [29] 100% | residual activity [30] 65% | inhibition [31] 7.34% | residual activity [32] 98% | residual activity [33] 100% | residual activity [34] 92% | residual activity [35] 82% | inhibition [36] 5.25% | residual activity [37] 100% | residual activity [38] 100% | residual activity [39] 100% | residual activity [40] 100% | residual activity [41] 98% | residual activity [42] 100% | residual activity [43] 100%

— ChEMBL document CHEMBL4507267 (2021)
